Patent publication US20230011571A1, “SMALL MOLECULE FURIN INHIBITORS FOR TREATING INFECTIOUS DISEASES” (BP Asset V, Inc., priority 2019, published 2023)

How the values were obtained:
Format in all cases: cell-based
[1] = test system: Chikungunya virus (CHIKV); test: microbe, parasite or virus in culture; conditions: Chikungunya virus, Vero, 48 h, read-out: Percent viral inhibition CHKV
[2] = test system: dengue virus (DENV); test: microbe, parasite or virus in culture; conditions: Dengue virus, Vero, 120 h, read-out: Percent viral inhibition DENY
[3] = test system: Marburg virus (MARV); test: organism not typed; conditions: Vero, 72 h, read-out: Percent viral inhibition MARV

| Structure (SMILES) | inhibition at 1 µM [1] [%] | inhibition at 1 µM [2] [%] | inhibition at 1 µM [3] [%] |
| --- | --- | --- | --- |
| CN1CCN(c2ncc(Oc3cc(CN4CCO[C@H](CO)CC4)cc(-c4cc(Cl)cc(Cl)c4)n3)cn2)CC1 [Example 330, (S)-(4-((2-(3,5-dichlorophenyl)-6-((2-(4-methylpiperazin-1-yl)pyrimidin-5-yl)oxy)pyridin-4-yl)methyl)-1,4-oxazepan-7-yl)methanol] | 24.6 | 26.4 | 58.7 |
| CC(CC1CCN(Cc2cc(Oc3ccc(N4CCN(C)CC4)nc3)nc(-c3cc(Cl)cc(Cl)c3)c2)CC1)C(=O)O (stereo not drawn) [Example 213, 3-(1-((2-(3,5-dichlorophenyl)-6-((6-(4-methylpiperazin-1-yl)pyridin-3-yl)oxy)pyridin-4-yl)methyl)piperidin-4-yl)-2-methylpropanoic acid] | 26.5 | 28 | 49.3 |
| NS(=O)(=O)CCCN1CCN(c2ccc(Oc3cc(CN4CCC(CC(=O)O)CC4)cc(-c4cc(Cl)cc(Cl)c4)n3)cn2)CC1 [Example 252, 2-(1-((2-(3,5-dichlorophenyl)-6-((6-(4-(3-sulfamoylpropyl)piperazin-1-yl)pyridin-3-yl)oxy)pyridin-4-yl)methyl)piperidin-4-yl)acetic acid] | 33.2 | 23.3 | 53.5 |
| CC(=O)NCC1CCN(Cc2cc(Oc3cnc(N4CCN(CC(O)CF)CC4)nc3)nc(-c3cc(Cl)cc(Cl)c3)c2)CC1 (stereo not drawn) [Example 304, N-((1-((2-(3,5-dichlorophenyl)-6-((2-(4-(3-fluoro-2-hydroxypropyl)piperazin-1-yl)pyrimidin-5-yl)oxy)pyridin-4-yl)methyl)piperidin-4-yl)methyl)acetamide] | 0 | 41.8 | 12.4 |
| COCCN1CCN(c2ccc(Oc3cc(CN4CCC(CNC(C)=O)CC4)cc(-c4cc(Cl)cc(Cl)c4)n3)cn2)CC1 [Example 250, N-((1-((2-(3,5-dichlorophenyl)-6-((6-(4-(2-methoxyethyl)piperazin-1-yl)pyridin-3-yl)oxy)pyridin-4-yl)methyl)piperidin-4-yl)methyl)acetamide] | 25.9 | 55 | 0 |
| CC(=O)NCC1CCN(Cc2cc(Oc3ccc(N4CCN(CCC(=O)O)C(C)(C)C4)nc3)nc(-c3cc(Cl)cc(Cl)c3)c2)CC1 [Example 191] | 14.2 | 71.2 | 50.6 |
| CC(=O)NCC1CCN(Cc2cc(Oc3ccc(N4CCN(CCO)CC4)nc3)nc(-c3cc(Cl)cc(Cl)c3)c2)CC1 [Example 180, N-((1-((2-(3,5-dichlorophenyl)-6-((6-(4-(2-hydroxyethyl)piperazin-1-yl)pyridin-3-yl)oxy)pyridin-4-yl)methyl)piperidin-4-yl)methyl)acetamide] | 0 | 10.4 | 25.4 |
| CN1CCN(c2ncc(Oc3cc(CN4CCC(Cc5nnn[nH]5)CC4)cc(-c4cc(Cl)cc(Cl)c4)n3)cn2)CC1 [Example 72, 5-((4-((4-((1H-tetrazol-5-yl)methyl)piperidin-1-yl)methyl)-6-(3,5-dichlorophenyl)pyridin-2-yl)oxy)-2-(4-methylpiperazin-1-yl)pyrimidine] | 33.7 | 11.2 | 55.8 |
| CCN1CCN(c2ncc(Oc3cc(CN4CCC(CC(=O)O)CC4)cc(-c4cc(Cl)cc(Cl)c4)n3)cn2)CC1 [Example 234, 2-(1-((2-(3,5-dichlorophenyl)-6-((2-(4-ethylpiperazin-1-yl)pyrimidin-5-yl)oxy)pyridin-4-yl)methyl)piperidin-4-yl)acetic acid] | 26.7 | 36.9 | 49.1 |
| CNC(=O)NCC1CCN(Cc2cc(Oc3ccc(N4CCN(CCO)CC4)nc3)nc(-c3cc(Cl)cc(Cl)c3)c2)CC1 [Example 40, 1-((1-((2-(3,5-dichlorophenyl)-6-((6-(4-(2-hydroxyethyl)piperazin-1-yl)pyridin-3-yl)oxy)pyridin-4-yl)methyl)piperidin-4-yl)methyl)-3-methylurea] | 3.24 | 0 | 0 |
| COC(=O)NCC1CCN(Cc2cc(Oc3cnc(N4CCNCC4)nc3)nc(-c3cc(F)cc(Cl)c3)c2)CC1 [Example 275, methyl((1-((2-(3-chloro-5-fluorophenyl)-6-((2-(piperazin-1-yl)pyrimidin-5-yl)oxy)pyridin-4-yl)methyl)piperidin-4-yl)methyl)carbamate] | 0 | 0 | 0 |
| CN(C)C1CCN(c2ncc(Oc3cc(CN4CCC(CC(=O)O)CC4)cc(-c4cc(Cl)cc(Cl)c4)n3)cn2)CC1 [Example 227, 2-(1-((2-(3,5-dichlorophenyl)-6-((2-(4-(dimethylamino)piperidin-1-yl)pyrimidin-5-yl)oxy)pyridin-4-yl)methyl)piperidin-4-yl)acetic acid] | 40.5 | 54 | 54.5 |
| CC(=O)N[C@H]1[C@@H]2CCN(Cc3cc(Oc4cnc(N5CCN(CCC(=O)O)CC5)nc4)nc(-c4cc(Cl)cc(Cl)c4)c3)CC[C@@H]21 [Example 367, 3-(4-(5-((4-(((1R,7S,8r)-8-acetamido-4-azabicyclo[5.1.0]octan-4-yl)methyl)-6-(3,5-dichlorophenyl)pyridin-2-yl)oxy)pyrimidin-2-yl)piperazin-1-yl)propanoic acid] | 27.4 | 15 | 54.7 |
| CN1CCN(c2ccc(Oc3cc(CN4CCC(CC(=O)O)CC4)cc(-c4cc(Cl)cc(Cl)c4)n3)nn2)CC1 [Example 359, 2-(1-((2-(3,5-dichlorophenyl)-6-((6-(4-methylpiperazin-1-yl)pyridazin-3-yl)oxy)pyridin-4-yl)methyl)piperidin-4-yl)acetic acid] | 28.9 | 45.3 | 62 |
| CS(=O)(=O)CCCN1CCN(c2ccc(Oc3cc(CN4CCC(CC(=O)O)CC4)cc(-c4cc(Cl)cc(Cl)c4)n3)cn2)CC1 [Example 243, 2-(1-((2-(3,5-dichlorophenyl)-6-((6-(4-(3-(methylsulfonyl)propyl)piperazin-1-yl)pyridin-3-yl)oxy)pyridin-4-yl)methyl)piperidin-4-yl)acetic acid] | 14.6 | 37.9 | 46.8 |
| NC(=O)OCCN1CCN(Cc2cc(Oc3ccc(N4CCN(CCC(=O)O)CC4)nc3)nc(-c3cc(Cl)cc(Cl)c3)c2)CC1 [Example 55, 3-(4-(5-((4-((4-(2-(carbamoyloxy)ethyl)piperazin-1-yl)methyl)-6-(3,5-dichlorophenyl)pyridin-2-yl)oxy)pyridin-2-yl)piperazin-1-yl)propanoic acid] | 16.8 | 3.58 | 40.2 |
| CC(=O)NCC1CCN(Cc2cc(Oc3ccc(N4CCNC(CO)C4)nc3)nc(-c3cc(Cl)cc(Cl)c3)c2)CC1 (stereo not drawn) [Example 195, N-((1-((2-(3,5-dichlorophenyl)-6-((6-(3-(hydroxymethyl)piperazin-1-yl)pyridin-3-yl)oxy)pyridin-4-yl)methyl)piperidin-4-yl)methyl)acetamide] | 18.1 | 39.4 | 38.2 |
| CC(=O)NCC1CCN(Cc2cc(Oc3cnc(N4CCN(CC(O)C(=O)O)CC4)nc3)nc(-c3cc(Cl)cc(Cl)c3)c2)CC1 (stereo not drawn) [Example 316, 3-(4-(5-((4-((4-(acetamidomethyl)piperidin-1-yl)methyl)-6-(3,5-dichlorophenyl)pyridin-2-yl)oxy)pyrimidin-2-yl)piperazin-1-yl)-2-hydroxypropanoic acid] | 30.6 | 55.9 | 54.4 |
| CC1(C)CN(c2ncc(Oc3cc(CN4CCC(CC(=O)O)CC4)cc(-c4cc(Cl)cc(Cl)c4)n3)cn2)CCN1 [Example 160, 2-(1-((2-(3,5-dichlorophenyl)-6-((2-(3,3-dimethylpiperazin-1-yl)pyrimidin-5-yl)oxy)pyridin-4-yl)methyl)piperidin-4-yl)acetic acid] | 21.7 | 49.5 | 35.1 |
| O=C(O)CC1CCN(Cc2cc(Oc3cnc(N4CCN(CCO)CC4)nc3)nc(-c3cc(Cl)cc(Cl)c3)c2)CC1 [Example 306, 2-(1-((2-(3,5-dichlorophenyl)-6-((2-(4-(2-hydroxyethyl)piperazin-1-yl)pyrimidin-5-yl)oxy)pyridin-4-yl)methyl)piperidin-4-yl)acetic acid] | 13.6 | 7.27 | 51.1 |
| CC(=O)NCC1CCN(Cc2cc(Oc3ccc(N4CCN([C@H]5C[C@@H](NS(C)(=O)=O)C5)CC4)nc3)nc(-c3cc(Cl)cc(Cl)c3)c2)CC1 [Example 27, N-((1-((2-(3,5-dichlorophenyl)-6-((6-(4-((cis)-3-(methylsulfonamido)cyclobutyl)piperazin-1-yl)pyridin-3-yl)oxy)pyridin-4-yl)methyl)piperidin-4-yl)methyl)acetamide] | 26.8 | 51.1 | 50.3 |
| CNC(=O)NCC1CCN(Cc2cc(Oc3cnc(N4CCN(CC(C)C(=O)O)CC4)nc3)cc(-c3cc(Cl)cc(Cl)c3)c2)CC1 (stereo not drawn) [Example 292, 3-(4-(5-((3′,5′-dichloro-5-((4-((3-methylureido)methyl)piperidin-1-yl)methyl)-[1,1′-biphenyl]-3-yl)oxy)pyrimidin-2-yl)piperazin-1-yl)-2-methylpropanoic acid] | 15.9 | 26 | 54.2 |
| NC1(CO)CCN(c2ncc(Oc3cc(CN4CCC(CC(=O)O)CC4)cc(-c4cc(Cl)cc(Cl)c4)n3)cn2)CC1 [Example 165, 2-(1-((2-((2-(4-amino-4-(hydroxymethyl)piperidin-1-yl)pyrimidin-5-yl)oxy)-6-(3,5-dichlorophenyl)pyridin-4-yl)methyl)piperidin-4-yl) acetic acid] | 18.6 | 36.9 | 50.9 |
